According to the supplement of paper PMC9938120:

What was measured:
Assay in all cases: drug sensitivity score (DSS3, normalised partial AUC of % inhibition dose-response) (DSS (score)); higher = more sensitive (stronger inhibition of viability); extreme values may be limits of the assay
FMOC14 = patient-derived high-grade serous ovarian cancer cells; conditions: 72 h; library: FO5A; assay format: 2D, 384-well, CellTiter-Glo
In short: (§1)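 On 384-well flat clear-bottom plates carrying compounds at five concentrations across a 10,000-fold range, patient-derived ovarian cancer cells below passage 10 were incubated for 72 h at 37 °C with 5% CO2. CellTiter-Glo readout of viability was processed in Breeze. A higher drug sensitivity score, defined as the partial area under the percent-inhibition dose-response curve divided by the log of the upper asymptote, means greater sensitivity.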

FMOC24 = patient-derived high-grade serous ovarian cancer cells; conditions: 72 h; library: FO5A; assay format: 2D, 384-well, CellTiter-Glo
In short: as §1

FMOC02_3 = patient-derived low-grade serous ovarian cancer cells; conditions: 72 h; library: FO5A; assay format: 2D, 384-well, CellTiter-Glo
In short: as §1

FMOC06 = patient-derived mucinous ovarian cancer cells; conditions: 72 h; library: FO5A; assay format: 2D, 384-well, CellTiter-Glo
In short: as §1

FMOC02_2 = patient-derived low-grade serous ovarian cancer cells; conditions: 72 h; library: FO5A; assay format: 2D, 384-well, CellTiter-Glo
In short: as §1

FMOC25_1 = patient-derived low-grade serous ovarian cancer cells; conditions: 72 h; library: FO4B; assay format: 2D, 384-well, CellTiter-Glo
In short: as §1

FMOC25_2 = patient-derived low-grade serous ovarian cancer cells; conditions: 72 h; library: FO5A; assay format: 2D, 384-well, CellTiter-Glo
In short: as §1

FMOC09 = patient-derived high-grade serous ovarian cancer cells; conditions: 72 h; library: FO5A; assay format: 2D, 384-well, CellTiter-Glo
In short: as §1

FMOC22 = patient-derived mucinous ovarian cancer cells; conditions: 72 h; library: FO5A; assay format: 2D, 384-well, CellTiter-Glo
In short: as §1

FMOC03 = patient-derived mucinous ovarian cancer cells; conditions: 72 h; library: FO5A; assay format: 2D, 384-well, CellTiter-Glo
In short: as §1

Compound | drug sensitivity score (FMOC14) | drug sensitivity score (FMOC24) | drug sensitivity score (FMOC02_3) | drug sensitivity score (FMOC06) | drug sensitivity score (FMOC02_2) | drug sensitivity score (FMOC25_1) | drug sensitivity score (FMOC25_2) | drug sensitivity score (FMOC09) | drug sensitivity score (FMOC22) | drug sensitivity score (FMOC03)
C#Cc1cccc(Nc2ncnc3cc4c(cc23)OCCOCCOCCO4)c1 [Icotinib] | 2.1 | 1 | 10.7 | 3.4 | 11.2 | 9 | 7.1 | 8 | 1.8 | 9.7
CC(=O)[C@]1(O)Cc2c(O)c3c(c(O)c2[C@@H](O[C@H]2C[C@H](N)[C@H](O)[C@H](C)O2)C1)C(=O)c1ccccc1C3=O [Idarubicin] | 6.1 | 9.4 | 9.1 | 5.8 | 7.8 | 9.2 | 9.1 | 6.3 | 7 | 4.8
COc1cc(C(=O)O)ccc1NC(=O)[C@@H]1N[C@@H](CC(C)(C)C)[C@](C#N)(c2ccc(Cl)cc2F)[C@H]1c1cccc(Cl)c1F [Idasanutlin] | 2.5 | 1.9 | 22.7 | 5.3 | 18.5 | 10.5 | 16.6 | 2 | 3.6 | 2.6
O=C(Nc1ccncc1)C(=O)c1cn(Cc2ccc(Cl)cc2)c2ccccc12 [Indibulin] | 0 | 6 | 9.6 | 1.3 | 10.9 | 5.5 | 9.2 | 4.7 | 3.4 | 4.3
CC(C)NC[C@@H](C(=O)N1CCN(c2ncnc3c2[C@H](C)C[C@H]3O)CC1)c1ccc(Cl)cc1 [Ipatasertib] | 2.8 | 3 | 14.3 | 4 | 7.8 | 7 | 7.4 | 0.1 | 2.1 | 1
NC(=O)N1CCC(CC(=O)N2CCC([C@H]3c4ncc(Br)cc4CCc4cc(Cl)cc(Br)c43)CC2)CC1 [Lonafarnib] | 10.3 | 7.5 | 0 | 12.1 | 6.6 | 2.7 | 9.8 | 7 | 15.1 | 9.8
CCNC(=O)c1noc(-c2cc(C(C)C)c(O)cc2O)c1-c1ccc(CN2CCOCC2)cc1 [Luminespib] | 13 | 9.4 | 23 | 3.2 | 19.8 | 10.9 | 23.6 | 16.9 | 13.2 | 10.8
O=C(Nc1cccc(NC(=O)c2cccc(O)c2O)c1)c1cccc(O)c1O [MST-312] | 8.2 | 5.55 | 7.7 | 5.7 | 2.7 | 4.5 | 2.4 | 9.7 | 10.1 | 6.2
CCN(CC)CCCC(C)Nc1c2ccc(Cl)cc2nc2ccc(OC)cc12 (stereo not given) [Mepacrine] | 9.8 | 20.2 | 19.4 | 10 | 19.4 | 10.3 | 10.9 | 10.3 | 9.2 | 9.5
S=c1[nH]cnc2nc[nH]c12 [Mercaptopurine] | 0 | 0.85 | 0 | 0.3 | 0.2 | 1.6 | 1.8 | 0 | 0 | 0
CN(Cc1cnc2nc(N)nc(N)c2n1)c1ccc(C(=O)N[C@@H](CCC(=O)O)C(=O)O)cc1 [Methotrexate] | 0 | 0 | 0 | 0 | 0 | 0 | 0.2 | 0 | 0 | 0
CO[C@@H]1[C@H](N(C)C(=O)c2ccccc2)C[C@H]2O[C@]1(C)n1c3ccccc3c3c4c(c5c6ccccc6n2c5c31)C(=O)NC4 [Midostaurin] | 3 | 9.3 | 16.9 | 9.1 | 21.7 | 14.5 | 21.2 | 10.6 | 4.5 | 5
CNC(=O)c1nn(C)c2c1C(C)(C)Cc1cnc(Nc3ccc(N4CCN(C)CC4)cc3)nc1-2 [Milciclib] | 6.3 | 8.25 | 15.1 | 6.8 | 12.5 | 8.5 | 13.1 | 7.6 | 6.2 | 8.6
O=C1c2c(O)ccc(O)c2C(=O)c2c(NCCNCCO)ccc(NCCNCCO)c21 [Mitoxantrone] | 3.2 | 3.45 | 5.9 | 1.9 | 4 | 0.3 | 7 | 8.8 | 6 | 2.7
Nc1ccccc1NC(=O)c1ccc(CNc2nccc(-c3cccnc3)n2)cc1 [Mocetinostat] | 10.1 | 11.4 | 11.2 | 10.9 | 12.6 | 9.6 | 9.2 | 3.7 | 8 | 11.1
N#CCNC(=O)c1ccc(-c2ccnc(Nc3ccc(N4CCOCC4)cc3)n2)cc1 [Momelotinib] | 1.7 | 5.95 | 9.9 | 2.7 | 6 | 5.4 | 9.3 | 1.2 | 3.2 | 2.4
Cc1cc(OCc2nnc(SC3CCCC3)n2-c2cccnc2)ccc1-c1ccc(S(C)(=O)=O)cc1 [NMS-873] | 9.2 | 9.15 | 10 | 8 | 8.3 | 8.9 | 9.6 | 5.3 | 8.8 | 9
COc1ccc(-c2ccc3ncc4c(c3c2)n(-c2ccc(N3CCNCC3)c(C(F)(F)F)c2)c(=O)n4C)cn1 [NVP-BGT226] | 14.9 | 10.7 | 27 | 15.2 | 24.7 | 27.5 | 26.7 | 11.9 | 14.4 | 17.4
CC1(C)CCC(c2ccc(Cl)cc2)=C(CN2CCN(c3ccc(C(=O)NS(=O)(=O)c4ccc(N[C@H](CCN5CCOCC5)CSc5ccccc5)c(S(=O)(=O)C(F)(F)F)c4)cc3)CC2)C1 [Navitoclax] | 7.3 | 21.1 | 21.9 | 6.6 | 21.7 | 14.7 | 23.2 | 0 | 4.8 | 6.9
CCOc1cc2ncc(C#N)c(Nc3ccc(OCc4ccccn4)c(Cl)c3)c2cc1NC(=O)/C=C/CN(C)C [Neratinib] | 2.5 | 1.1 | 18.3 | 2.2 | 14.1 | 8.7 | 16.5 | 9.8 | 2.3 | 12.3
COC(=O)c1ccc2c(c1)NC(=O)/C2=C(\Nc1ccc(N(C)C(=O)CN2CCN(C)CC2)cc1)c1ccccc1 [Nintedanib] | 3.3 | 5.85 | 11.7 | 4.5 | 8.3 | 0 | 2.1 | 4.6 | 0.6 | 1.8
O=C(c1cc(Cc2n[nH]c(=O)c3ccccc23)ccc1F)N1CCN(C(=O)C2CC2)CC1 [Olaparib] | 4.4 | 4.6 | 5 | 3.6 | 1.7 | 3 | 3.2 | 3.2 | 2.4 | 1.4
COC(=O)C[C@](O)(CCCC(C)(C)O)C(=O)O[C@@H]1C(OC)=C[C@]23CCCN2CCc2cc4c(cc2[C@H]13)OCO4 [Omacetaxine] | 21.9 | 23.6 | 23.8 | 19 | 20.2 | 23.8 | 24.6 | 19.1 | 15.3 | 16.7
COc1ncc(-c2ccc3nccc(-c4ccnnc4)c3c2)cc1NS(=O)(=O)c1ccc(F)cc1F [Omipalisib] | 15.2 | 8.5 | 23.9 | 20.6 | 24.2 | 24.2 | 22.1 | 19.1 | 13.9 | 18.4
CC(C)c1cc(C(=O)N2Cc3ccc(CN4CCN(C)CC4)cc3C2)c(O)cc1O [Onalespib] | 9 | 5.45 | 14 | 6 | 12.6 | 12 | 15.4 | 9 | 8.1 | 12.2
COC[C@H](NC(=O)c1cnc(C)s1)C(=O)N[C@@H](COC)C(=O)N[C@@H](Cc1ccccc1)C(=O)[C@@]1(C)CO1 [Oprozomib] | 19.5 | 20.9 | 15.1 | 12.9 | 13.1 | 14.6 | 20.4 | 10.6 | 16.6 | 17.3
C=CC(=O)Nc1cc(Nc2nccc(-c3cn(C)c4ccccc34)n2)c(OC)cc1N(C)CCN(C)C [Osimertinib] | 6.1 | 4.35 | 12 | 4 | 15 | 7.3 | 11.2 | 11.3 | 3.3 | 11.7
O=C(O)C(=O)O.[NH-][C@@H]1CCCC[C@H]1[NH-].[Pt+2] [Oxaliplatin] | 6.8 | 11.3 | 9.9 | 7 | 7.5 | 8.9 | 5.7 | 14.9 | 9.6 | 8.8
COc1ccccc1S(=O)(=O)Nc1ccc2c(c1)CN(C)C(=O)N2 [PFI-1] | 1.2 | 3.2 | 7.1 | 3.6 | 5.3 | 1.1 | 5.7 | 3.2 | 3.6 | 2.9
CN1CCN(c2cc(C(=O)Nc3ccc4c(c3)-c3c(c(C(N)=O)nn3-c3ccc(F)cc3)CC4)c(Cl)cn2)CC1 [PHA 408] | 4 | 9 | 6.8 | 4.6 | 4 | 0.6 | 11 | 4.8 | 4.6 | 5.2
